Data taken from US12098216B2, “Modulators of programmed death-ligand-1 and/or programmed death-ligand-2” (Southern Research Institute, priority 2020, dated 2024).
Square brackets hold non-standard residues; d marks the D form. Peptide text beside a SMILES is read from it. * marks the point of attachment. dPhe(4-CH2NH2) = NCc1ccc(C[C@@H](N)C(=O)O)cc1; dOrn = NCCC[C@@H](N)C(=O)O; Orn = NCCC[C@H](N)C(=O)O; Ac5c = NC1(C(=O)O)CCCC1; PhAc = O=C(Cc1ccccc1)*; Ac3c = NC1(C(=O)O)CC1; Aib = CC(C)(N)C(=O)O

molecular target: PD-1; test: Binding affinity (KD) of dipeptides, Table 1

With `CC(C)(NC(=O)[C@@H](CCCN)NC(=O)Cc1ccc(Cl)cc1)C(N)=O` [Compound 17] as the compound, how does the KD read?
The KD was “No Binding”.

With `CC(C)(NC(=O)[C@@H](Cc1ccc(CN)cc1)NC(=O)Cc1ccccc1)C(N)=O` [Compound 23] (PhAc-[dPhe(4-CH2NH2)]-[Aib]-NH2) as the compound, how does the KD read?
The KD was “No Binding”.

How did the KD turn out when `CC(C)(NC(=O)[C@@H](CCCN)NC(=O)Cc1cc(F)c(F)c(F)c1)C(N)=O` [Compound 32] was run?
The KD was “No Binding”.

Which KD does the source give for `Cc1c[nH]c(=O)c(NC(=O)[C@@H](CCCN)NC(=O)Cc2ccccc2)c1` [Compound 36] here?
The KD was “No Binding”.

tested on: PDL-1 and/or PDL-2 signaling; test: Luciferase assay of dipeptides, Table 1; assay type: cell-based

Which EC50 does the source give for `CC(C)(NC(=O)[C@@H](CCCN)NC(=O)Cc1ccccc1)C(N)=O` [Compound 1, (R)-5-amino-N-(1-amino-2-methyl-1-oxopropan-2-yl)-2-(2-phenylacetamido)pentanamide] (PhAc-[dOrn]-[Aib]-NH2) here?
The EC50 was 18 µM.

`CC(C)(NC(=O)[C@H](CCCN)NC(=O)Cc1ccccc1)C(N)=O` [Compound 2] (PhAc-[Orn]-[Aib]-NH2) was tested. Which EC50 did it give?
The EC50 was 7.9 µM.

`CC(C)(NC(=O)[C@@H](CCCN)NC(=O)Cc1ccc(C(F)(F)F)cc1)C(N)=O` [Compound 3] was tested. Which EC50 did it give?
The EC50 was 0.01 µM.

For `CC(C)(NC(=O)[C@@H](CCCN)NC(=O)Cc1ccc(F)cc1)C(N)=O` [Compound 4], which EC50 is on record?
The EC50 was 0.47 µM.

With `COc1ccc(CC(=O)N[C@H](CCCN)C(=O)NC(C)(C)C(N)=O)cc1` [Compound 5] as the compound, how does the EC50 read?
Its EC50 is 0.32 µM.

For `CC(C)(NC(=O)[C@@H](CCCN)NC(=O)Cc1ccc(OC(F)(F)F)cc1)C(N)=O` [Compound 6], which EC50 is on record?
The EC50 was 0.09 µM.

For `NCCC[C@@H](NC(=O)Cc1ccccc1)C(=O)NC1(C(N)=O)CCCC1` [Compound 7] (PhAc-[dOrn]-[Ac5c]-NH2), which EC50 is on record?
Its EC50 is 0.28 µM.

For `CC(C)(NC(=O)[C@@H](CCCCN)NC(=O)Cc1ccccc1)C(N)=O` [Compound 8] (PhAc-[dK]-[Aib]-NH2), which EC50 is on record?
Its EC50 is 1.37 µM.

Which EC50 does the source give for `CC(C)(NC(=O)[C@@H](CCCN)NC(=O)Cc1ccccc1F)C(N)=O` [Compound 9] here?
The EC50 was 0.05 µM.

`Cc1ccc(CC(=O)N[C@H](CCCN)C(=O)NC(C)(C)C(N)=O)cc1` [Compound 10] was tested. Which “EC50 (μM) Luciferase” value did it give?
Its value is “Inactive”.

With `CC(C)(NC(=O)[C@@H](CCCN)NC(=O)Cc1cccc(F)c1)C(N)=O` [Compound 11] as the compound, how does the EC50 read?
The EC50 was 1.28 µM.

How did the “EC50 (μM) Luciferase” value turn out when `CC(C)(NC(=O)[C@@H](CCCN)NC(=O)C(C)(C)c1ccccc1)C(N)=O` [Compound 12] was run?
Its value is “Inactive”.

With `Cn1cc(C(=O)N[C@H](CCCN)C(=O)NC(C)(C)C(N)=O)c2ccccc21` [Compound 13] as the compound, how does the EC50 read?
Its EC50 is 1.28 µM.

`NCCC[C@@H](NC(=O)Cc1ccccc1)C(=O)NC1(C(N)=O)CC1` [Compound 14] (PhAc-[dOrn]-[Ac3c]-NH2) was tested. Which EC50 did it give?
Its EC50 is 0.11 µM.

How did the EC50 turn out when `NCCC[C@@H](NC(=O)Cc1ccc(F)cc1)C(=O)NC1(C(N)=O)CC1` [Compound 15] was run?
The EC50 was 3.32 µM.

With `CC(C)(NC(=O)[C@@H](CCCN)NC(=O)Cc1ccc(Cl)cc1)C(N)=O` [Compound 17] as the compound, how does the EC50 read?
The EC50 was 10.3 µM.

`CC(C)(NC(=O)[C@@H](CCCN)NC(=O)C1(c2ccccc2)CC1)C(N)=O` [Compound 22] was tested. Which EC50 did it give?
Its EC50 is 2.05 µM.

How did the EC50 turn out when `CC(C)(NC(=O)[C@@H](Cc1ccc(CN)cc1)NC(=O)Cc1ccccc1)C(N)=O` [Compound 23] (PhAc-[dPhe(4-CH2NH2)]-[Aib]-NH2) was run?
Its EC50 is 17.7 µM.

Which EC50 does the source give for `CC(C)(NC(=O)[C@@H](Cc1ccc(CN)cc1)NC(=O)Cc1ccc(F)cc1)C(N)=O` [Compound 24] here?
The EC50 was 0.714 µM.

How did the EC50 turn out when `CC(C)(NC(=O)[C@@H](CCCN)NC(=O)C1(c2ccc(F)cc2)CC1)C(N)=O` [Compound 25] was run?
The EC50 was 5.03 µM.

`CC(C)(NC(=O)[C@@H](CCCN)NC(=O)C(C)(C)c1ccc(F)cc1)C(N)=O` [Compound 26] was tested. Which EC50 did it give?
Its EC50 is 3.79 µM.

With `CC(C)(NC(=O)[C@@H](CCCN)NC(=O)Cc1ccc(F)cc1Cl)C(N)=O` [Compound 27] as the compound, how does the EC50 read?
Its EC50 is 10.2 µM.

Which EC50 does the source give for `CC(C)(NC(=O)[C@@H](CCCN)NC(=O)Cc1ccc(F)c(F)c1)C(N)=O` [Compound 28] here?
Its EC50 is 2 µM.

How did the EC50 turn out when `CC(C)(NC(=O)[C@@H](CCCN)NC(=O)Cc1ccc(F)cc1F)C(N)=O` [Compound 29] was run?
The EC50 was 2.58 µM.

For `CC(C)(NC(=O)[C@@H](CCCN)NC(=O)Cc1cc(F)cc(F)c1)C(N)=O` [Compound 30], which EC50 is on record?
Its EC50 is 2.1 µM.

With `CC(C)(NC(=O)[C@@H](CCCN)NC(=O)Cc1c(F)cccc1F)C(N)=O` [Compound 31] as the compound, how does the EC50 read?
Its EC50 is 0.596 µM.

With `CC(C)(NC(=O)[C@@H](CCCN)NC(=O)Cc1cc(F)c(F)c(F)c1)C(N)=O` [Compound 32] as the compound, how does the EC50 read?
The EC50 was 28.3 µM.

Which EC50 does the source give for `CC(C)(NC(=O)[C@@H](CCCN)NC(=O)Cc1c(F)cc(F)cc1F)C(N)=O` [Compound 33] here?
The EC50 was 0.06 µM.

`CC(C)(NC(=O)[C@@H](CCCN)NC(=O)Cc1ccncc1)C(N)=O` [Compound 34] was tested. Which EC50 did it give?
The EC50 was 3.48 µM.

How did the EC50 turn out when `Cc1c[nH]c(=O)c(NC(=O)[C@@H](CCCN)NC(=O)Cc2ccc(F)cc2)c1` [Compound 35] was run?
The EC50 was 0.59 µM.

How did the EC50 turn out when `Cc1c[nH]c(=O)c(NC(=O)[C@@H](CCCN)NC(=O)Cc2ccccc2)c1` [Compound 36] was run?
The EC50 was 1.69 µM.

`CN(C)CCC[C@@H](NC(=O)Cc1ccc(F)cc1)C(=O)NC(C)(C)C(N)=O` [Compound 37] was tested. Which EC50 did it give?
Its EC50 is 23.8 µM.

`CC(C)(NC(=O)[C@@H](CCCN)NC(=O)Cc1nc2ccccc2o1)C(N)=O` [Compound 38] was tested. Which EC50 did it give?
The EC50 was 19.2 µM.

For `CCCC[C@@H](NC(=O)Cc1ccc(F)cc1)C(=O)NC(C)(C)C(N)=O` [Compound 39], which EC50 is on record?
Its EC50 is 10.3 µM.

For `CC(C)(NC(=O)[C@@H](CCCN)NC(=O)Cc1nc2ccccc2s1)C(N)=O` [Compound 40], which EC50 is on record?
Its EC50 is 0.07 µM.

How did the EC50 turn out when `CC(C)(NC(=O)[C@H](CCCN)NC(=O)Cc1ccc(C(F)(F)F)cc1)C(N)=O` [Compound 42] was run?
The EC50 was 12.1 µM.
